Results on six compounds are retold here after US6680054B1 (priority 1996, dated 2004).

Series [1] has as its system influenza A virus. It counts as cell-based.
In series [2] the test system is MDCK cells.
The target in series [3] is whole virus influenza neuraminidase, A/NWS/Tokyo/3/67/H1N2 (Influenza A virus, UniProt P06820). Format: biochemical. As to conditions: read-out: inhibition constants (IC50), NWS/Tokyo.
The subject of series [4] is influenza strain X-31 (H3N2). Format: cell-based.
Series [5] relates to influenza strain Tokyo A. Format: cell-based.

pIC50: −log10 of the molar value. Read-outs that look alike come from different tables or passages of the source. Bounds are passed on as bounds.

Sequence of whole virus influenza neuraminidase, A/NWS/Tokyo/3/67/H1N2 (P06820 whole entry, looked up): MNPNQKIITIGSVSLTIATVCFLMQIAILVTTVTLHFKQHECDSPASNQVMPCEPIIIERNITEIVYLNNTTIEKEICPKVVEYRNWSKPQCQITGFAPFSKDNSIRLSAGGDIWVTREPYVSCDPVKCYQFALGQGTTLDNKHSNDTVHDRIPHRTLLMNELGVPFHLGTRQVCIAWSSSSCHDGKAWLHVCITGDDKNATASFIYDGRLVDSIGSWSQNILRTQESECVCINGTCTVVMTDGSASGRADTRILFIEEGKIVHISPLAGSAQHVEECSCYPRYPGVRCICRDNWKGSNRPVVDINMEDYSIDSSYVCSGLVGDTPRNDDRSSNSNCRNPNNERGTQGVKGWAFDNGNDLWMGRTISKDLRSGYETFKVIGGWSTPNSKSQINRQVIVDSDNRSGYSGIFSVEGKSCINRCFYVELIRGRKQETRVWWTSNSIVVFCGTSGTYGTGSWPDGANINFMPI

For “7-{6′-{6″-[6″′-(6″″-(6′″″-aminocaproyl)-aminocaproyl)-aminocaproyl]-aminocaproyl}-aminohexyl-carbamoyl-oxy-4-guanidino-Neu5Ac2en [Compound 2c]”, in series [1], the “ID50, minimum compound concentration that inhibits cytopathic effect by 50%” value was 3.0 µg/mL. Besides, the “MTC, minimum cytotoxic drug concentration” value in series [2] is reported as more than 100.

In the case of `CC(=O)N[C@H]1[C@H]([C@H](O)[C@H](O)CO)OC(C(=O)O)=C[C@@H]1O` [DANA, 2-deoxy-2,3-didehydro-N-acetylneuraminic acid], the pIC50 in series [3] is 5.22.

As to `CC(=O)NC1C(NC(=N)N)C=C(C(=O)O)OC1[C@H](O)[C@H](O)CO` (stereo partly shown) [GG167, 4-guanidino-Neu5Ac2en], in series [1], the “ID50, minimum compound concentration that inhibits cytopathic effect by 50%” value is less than 0.32 µg/mL. Moreover, the “MTC, minimum cytotoxic drug concentration” value in series [2] (dog) is recorded as more than 100.

With `NC(=O)c1ncn([C@@H]2O[C@H](CO)[C@@H](O)[C@H]2O)n1` [Ribavirin], the “ID50, minimum compound concentration that inhibits cytopathic effect by 50%” value in series [1] lay within 1.0 to 2.6 µg/mL. The “MTC, minimum cytotoxic drug concentration” value in series [2] (dog) is listed as more than 32.

In the case of Fetuin, the “Lowest Concentration (μM of GG167 units) that Inhibited Agglutination, X-31” value in series [4] is less than 0.48 µM. For the same compound, the “Lowest Concentration (μM of GG167 units) that Inhibited Agglutination, TOKYO” value in series [5] was found to be 5.86 µM.

Consider Polyacrylamide, for which the “MTC, minimum cytotoxic drug concentration” value in series [2] is on record as more than 100.
